PMC12188386, “Selective CBP/EP300 Bromodomain Inhibitors: Novel Epigenetic Tools to Counter TNF-α-Driven Inflammation” (JACS Au, 2025)

Assays:
[1] = concentration in saturated 12.5% CAPTISOL solution; assay type: physicochemical; settings: filtered 12.5 w/v% CAPTISOL in water, st. dev. between technical replicates (n=2)
Method: was used as the calibration curve. To obtain saturated solutions of the compounds of interest, in duplicates 4.4 µL of a 10 or 5 mM stock in DMSO was added to 436 µL Buffer (PBS, pH = 7.4), to give a final concentration of 100 or 50 µM. Samples were incubated on a shaker (500 rpm) at 37°C for 90 minutes and then filtered (Millex-GV 13 mm, 0.22 µm). 304 µL of the filtrate was mixed with 76 µL of acetonitrile on a dilution plate, from which 350 µL was transferred to a UV-plate and UV-absorption was read using a SpectraMax M5 (Molecular devices). The absorbance was blank-corrected and compared to the calibration curve to […]
solubility. The wavelengths used for the calibration curve are available in Table S4.
Sample preparation in CAPTISOL® […]
lower solubility (2) compounds respectively in a 12.5 w/v% CAPTISOL® solution in water. In a precisely tared vial, required amounts of compounds and CAPTISOL® were weighed out as solids. Based on the known density of 12.5 % CAPTISOL® solution (d = 1.05755 g/mL at 25 °C), the precise weight of the resulting solution and so the required amount of water by weight was calculated. The water was added portion wise with agitation, vortexing and sonication cycles in between additions. The saturated solutions were then filtered (Millex-GV 13 mm, 0.22 µm). In duplicates, aliquots of the filtrates were taken and diluted with blank 12.5 % CAPTISOL® water solution in either a 1:14 (higher sol. compounds) or 1:7 (lower sol. compounds) ratio, 350 µL was transferred to a 96-Well Plate (Greiner, UV-star) then UV absorption (240-400 nm, 10 nm steps) was measured using a SpectraMax M5 (Molecular devices). The absorption was blank-corrected, compared to the calibration curve obtained during the solubility measurement method above and finally corrected for the dilution ratio to obtain the compound concentration in the saturated 12.5 % CAPTISOL® solution. The calculated concentrations are available in Table S4.
BROMOscan™ assays (provided by Eurofins DiscoverX, US)1,2 […]
coli host derived from the BL21 strain. […]

[2] = system: rmTNF-α-induced cytokines in the popliteal lymph node; experiment: TNF-α induced inflammation model, cytokines in pLN (LEGENDplex); assay type: in vivo, mouse; settings: mice, 5 h post-rmTNF-α; for concentrations of IL-1β, MCP-1, IL-1α and IL-6 in the pLN: CAPTISOL solutions s.c. (footpad) and i.p. 90 min after rmTNF-α, vs rmTNF-α + CAPTISOL
Method: C57BL/6 mice were bred in -house or acquired from Charles River Laboratories. Mice were maintained in specific pathogen -free facilities at the Institute for Research in Biomedicine, Bellinzona. Experiments were performed following the Swiss Federal Veterina ry Office guidelines and authorized by the relevant institutional committee of the Cantonal Veterinary (Commissione cantonale per gli esperimenti sugli animali, Ticino) .
TNF-α induced inflammation model
Recombinant Mouse TNF-α (rmTNF-α) (aa 80-235) Protein (Cat# 410-MT-050/CF) was purchased from RnDsystems® and resuspended following instruction into sterile PBS. Mice were anesthetized with isoflurane and 300 ng of rmTNF-α was administered subcutaneously in the footpad (10 µL injection volume), and for the experiments with the CBP/EP300 inhibitors an additional 300 ng of rmTNF-α was also administered intraperitoneally (100 µL injection volume). After 1.5 h, mice were injected with 10 µL of the prepared CAPTISOL […]
foodpad and also intraperitoneally (for i.p. injection, the 10 µL of CAPTISOL solution was diluted to a final volume of 100 µL using PBS). Organs were collected 5 h after TNF-α […]
LEGENDPlexTM assays (Mouse Pro-inflammatory Chemokine Panel and Mouse Inflammation Panel; Biolegend) were performed to monitor cytokine/chemokine expression. Briefly, popliteal LNs were collected and carefully disrupted in […] ice-cold phosphate buffer, minimizing cell rupture. The suspension was centrifuged at 1,500 rpm for 5 min, and the […]
supernatant was c ected. μ supernatant was used f r the pr t c f win the manufacturer’s instructi ns. amp es were ana zed f w c t metr n an rtessa Biosciences), and data was analyzed using LEGENDPlex software (BioLegend).
Popliteal LNs were collected, disrupted with tweezers, and digested for 10 min at 37°C in an enzyme mix composed of DNase I (0.28 mg/mL, Amresco), dispase (1 U/mL, Corning), and collagenase P (0.5 mg/mL, Roche) in calcium- and magnesium-free PBS (PBS-, Sigma-Aldrich) followed by a stop solution composed of 2 mM EDTA (Sigma -Aldrich) and 2% heat-inactivated filter-sterilized fetal calf serum (Thermo Fisher Scientific) in PBS -. […] Where indicated, intracellular staining was performed using Intracellular Fixation and Permeabilization Buffer Set (eBioscience), following the manufacturer’s instructi ns. ead ce s were exc uded u sing Zombie fixable viability dye (Biolegend), and data were analyzed using FlowJo software (TriStar Inc).
In this study, various combinations of the following fluorescence -conjugated antibodies have been used for cell-surface phen t pic stainin : α - α α […]
Data was analysed and graphs prepared using GraphPad Prism. […]

SMILES	Conc. in 12.5% Captisol sol. [1] [µM]	decrease of IL-6 in the pLN compared to GNE-272 [2] [fold]	concentrations of IL-1β, MCP-1, IL-1α and IL-6 in the pLN [2]
Cc1cc2c(NC(=O)c3cc(NC(=O)c4ccco4)cc(-c4ccn(C)n4)c3)cccc2nn1 [Compound 2]	160 ± 1	4	significant reduction
Cc1cc2c(NC(=O)c3cc(NC(=O)[C@H]4CCCO4)cc(-c4ccn(C)n4)c3)cccc2nn1 [Compound 5]	790 ± 18	7	significant reduction
